Test results: the NIST ThermoML archive (doi:10.1016/j.jct.2008.01.009)

Key:
[1] = molar heat capacity at constant pressure; settings: 101.33 kPa, Vacuum adiabatic calorimetry
[2] = molar heat capacity at saturation pressure
[3] = for vapor or sublimation pressure / mass density: Liquid; for mass density: Vibrating tube method
[4] = Molar enthalpy of transition or fusion; settings: Crystal 1; Adiabatic calorimetry

C1=Cc2ccccc2CC1 [1,2-dihydronaphthalene]
Settings | molar heat capacity [J/K/mol] | molar heat capacity at constant pressure [J/K/mol] | vapor or sublimation pressure [kPa]
[1], 5 K, Crystal 3 | – | 0.28 | –
[1], 10 K, Crystal 3 | – | 2.69 | –
[1], 20 K, Crystal 3 | – | 13.26 | –
[1], 30 K, Crystal 3 | – | 24.12 | –
[1], 40 K, Crystal 3 | – | 33.18 | –
[1], 50 K, Crystal 3 | – | 40.87 | –
[1], 60 K, Crystal 3 | – | 47.15 | –
[1], 70 K, Crystal 3 | – | 52.76 | –
[1], 80 K, Crystal 3 | – | 57.88 | –
[1], 90 K, Crystal 3 | – | 62.79 | –
[1], 100 K, Crystal 3 | – | 67.58 | –
[1], 120 K, Crystal 3 | – | 77.47 | –
[1], 140 K, Crystal 3 | – | 90.29 | –
[1], 146 K, Crystal 2 | – | 95.59 | –
[1], 146 K, Crystal 3 | – | 95.33 | –
[1], 160 K, Crystal 2 | – | 104.39 | –
[1], 180 K, Crystal 2 | – | 115.29 | –
[1], 194.4 K, Crystal 1 | – | 126.5 | –
[1], 194.4 K, Crystal 2 | – | 124.59 | –
[1], 200 K, Crystal 1 | – | 129.36 | –
[1], 220 K, Crystal 1 | – | 141.06 | –
[1], 240 K, Crystal 1 | – | 155.01 | –
[1], 250 K, Liquid | – | 191.22 | –
[1], 260 K, Crystal 1 | – | 171.24 | –
[1], 260 K, Liquid | – | 195.03 | –
[1], 264.38 K, Crystal 1 | – | 175.09 | –
[1], 264.38 K, Liquid | – | 196.72 | –
[1], 280 K, Liquid | – | 202.59 | –
[1], 298.15 K, Liquid | – | 209.64 | –
[1], 300 K, Liquid | – | 210.37 | –
[1], 320 K, Liquid | – | 218.52 | –
[1], 340 K, Liquid | – | 226.88 | –
[1], 360 K, Liquid | – | 235.35 | –
[1], 380 K, Liquid | – | 243.89 | –
[1], 400 K, Liquid | – | 252.39 | –
[1], 420 K, Liquid | – | 260.86 | –
[1], 440 K, Liquid | – | 269.35 | –
[1], 460 K, Liquid | – | 277.87 | –
[1], 480 K, Liquid | – | 286.36 | –
[1], 500 K, Liquid | – | 294.85 | –
[2], 5.476 K, Crystal 3, Vacuum adiabatic calorimetry | 0.37 | – | –
[2], 6.388 K, Crystal 3, Vacuum adiabatic calorimetry | 0.64 | – | –
[2], 7.291 K, Crystal 3, Vacuum adiabatic calorimetry | 0.989 | – | –
[2], 8.25 K, Crystal 3, Vacuum adiabatic calorimetry | 1.48 | – | –
[2], 9.249 K, Crystal 3, Vacuum adiabatic calorimetry | 2.12 | – | –
[2], 10.3 K, Crystal 3, Vacuum adiabatic calorimetry | 2.94 | – | –
[2], 11.47 K, Crystal 3, Vacuum adiabatic calorimetry | 3.91 | – | –
[2], 12.77 K, Crystal 3, Vacuum adiabatic calorimetry | 5.18 | – | –
[2], 14.21 K, Crystal 3, Vacuum adiabatic calorimetry | 6.67 | – | –
[2], 15.81 K, Crystal 3, Vacuum adiabatic calorimetry | 8.431 | – | –
[2], 17.59 K, Crystal 3, Vacuum adiabatic calorimetry | 10.49 | – | –
[2], 19.57 K, Crystal 3, Vacuum adiabatic calorimetry | 12.77 | – | –
[2], 21.76 K, Crystal 3, Vacuum adiabatic calorimetry | 15.28 | – | –
[2], 24.19 K, Crystal 3, Vacuum adiabatic calorimetry | 18 | – | –
[2], 26.87 K, Crystal 3, Vacuum adiabatic calorimetry | 20.93 | – | –
[2], 29.83 K, Crystal 3, Vacuum adiabatic calorimetry | 23.95 | – | –
[2], 33.12 K, Crystal 3, Vacuum adiabatic calorimetry | 27.11 | – | –
[2], 36.82 K, Crystal 3, Vacuum adiabatic calorimetry | 30.48 | – | –
[2], 40.93 K, Crystal 3, Vacuum adiabatic calorimetry | 33.95 | – | –
[2], 45.51 K, Crystal 3, Vacuum adiabatic calorimetry | 37.56 | – | –
[2], 50.62 K, Crystal 3, Vacuum adiabatic calorimetry | 41.31 | – | –
[2], 55.37 K, Crystal 3, Vacuum adiabatic calorimetry | 44.29 | – | –
[2], 56.32 K, Crystal 3, Vacuum adiabatic calorimetry | 44.86 | – | –
[2], 60.82 K, Crystal 3, Vacuum adiabatic calorimetry | 47.66 | – | –
[2], 66.99 K, Crystal 3, Vacuum adiabatic calorimetry | 51.14 | – | –
[2], 73.79 K, Crystal 3, Vacuum adiabatic calorimetry | 54.73 | – | –
[2], 81.31 K, Crystal 3, Vacuum adiabatic calorimetry | 58.53 | – | –
[2], 89.62 K, Crystal 3, Vacuum adiabatic calorimetry | 62.62 | – | –
[2], 92.5 K, Crystal 3, Vacuum adiabatic calorimetry | 64 | – | –
[2], 98.63 K, Crystal 3, Vacuum adiabatic calorimetry | 66.92 | – | –
[2], 101.72 K, Crystal 3, Vacuum adiabatic calorimetry | 68.45 | – | –
[2], 108.13 K, Crystal 3, Vacuum adiabatic calorimetry | 71.57 | – | –
[2], 111.45 K, Crystal 3, Vacuum adiabatic calorimetry | 73.19 | – | –
[2], 116.48 K, Crystal 3, Vacuum adiabatic calorimetry | 75.72 | – | –
[2], 121.2 K, Crystal 3, Vacuum adiabatic calorimetry | 78.05 | – | –
[2], 122.5 K, Crystal 3, Vacuum adiabatic calorimetry | 78.89 | – | –
[2], 127.59 K, Crystal 3, Vacuum adiabatic calorimetry | 81.65 | – | –
[2], 129.07 K, Crystal 3, Vacuum adiabatic calorimetry | 82.45 | – | –
[2], 132.84 K, Crystal 3, Vacuum adiabatic calorimetry | 84.88 | – | –
[2], 138.14 K, Crystal 3, Vacuum adiabatic calorimetry | 89.05 | – | –
[2], 143.36 K, Crystal 3, Vacuum adiabatic calorimetry | 92.96 | – | –
[2], 148.64 K, Crystal 2 | 97.43 | – | –
[2], 153.85 K, Crystal 2 | 100.66 | – | –
[2], 159.03 K, Crystal 2 | 103.99 | – | –
[2], 164.19 K, Crystal 2 | 106.64 | – | –
[2], 169.6 K, Crystal 2 | 109.63 | – | –
[2], 171.24 K, Crystal 2 | 110.54 | – | –
[2], 175.29 K, Crystal 2 | 112.56 | – | –
[2], 178.78 K, Crystal 2 | 114.67 | – | –
[2], 180.37 K, Crystal 2 | 115.57 | – | –
[2], 180.88 K, Crystal 2 | 115.84 | – | –
[2], 186.07 K, Crystal 2 | 118.77 | – | –
[2], 186.76 K, Crystal 2 | 119.11 | – | –
[2], 187.6 K, Crystal 2 | 120.08 | – | –
[2], 192.71 K, Crystal 2 | 124.28 | – | –
[2], 192.99 K, Crystal 2 | 123.59 | – | –
[2], 197.84 K, Crystal 1, Small (less than 1 g) adiabatic calorimetry | 128.42 | – | –
[2], 199.44 K, Crystal 1, Small (less than 1 g) adiabatic calorimetry | 129.23 | – | –
[2], 202.96 K, Crystal 1, Small (less than 1 g) adiabatic calorimetry | 130.85 | – | –
[2], 206.23 K, Crystal 1, Small (less than 1 g) adiabatic calorimetry | 132.6 | – | –
[2], 208.77 K, Crystal 1, Small (less than 1 g) adiabatic calorimetry | 134.08 | – | –
[2], 213.6 K, Crystal 1, Small (less than 1 g) adiabatic calorimetry | 137.01 | – | –
[2], 215.96 K, Crystal 1, Small (less than 1 g) adiabatic calorimetry | 138.43 | – | –
[2], 219.37 K, Crystal 1, Small (less than 1 g) adiabatic calorimetry | 140.75 | – | –
[2], 230.97 K, Crystal 1, Small (less than 1 g) adiabatic calorimetry | 148.65 | – | –
[2], 238.26 K, Crystal 1, Small (less than 1 g) adiabatic calorimetry | 153.96 | – | –
[2], 243.92 K, Crystal 1, Small (less than 1 g) adiabatic calorimetry | 158.36 | – | –
[2], 252.96 K, Crystal 1, Small (less than 1 g) adiabatic calorimetry | 166.39 | – | –
[2], 255.1 K, Crystal 1, Small (less than 1 g) adiabatic calorimetry | 168.26 | – | –
[3], 290 K, Inclined piston gauge | – | – | 0.0253
[3], 299.97 K, Inclined piston gauge | – | – | 0.0534
[3], 310 K, Inclined piston gauge | – | – | 0.1078
[3], 319.99 K, Inclined piston gauge | – | – | 0.2047
[3], 329.98 K, Inclined piston gauge | – | – | 0.3717
[3], 339.99 K, Inclined piston gauge | – | – | 0.6472
[3], 349.98 K, Inclined piston gauge | – | – | 1.086
[3], 359.98 K, Inclined piston gauge | – | – | 1.76
[3], 362.71 K, Twin ebulliometer | – | – | 1.998
[3], 364.97 K, Inclined piston gauge | – | – | 2.214
[3], 369.18 K, Twin ebulliometer | – | – | 2.671
[3], 369.98 K, Inclined piston gauge | – | – | 2.766
[3], 378.73 K, Twin ebulliometer | – | – | 4.013
[3], 385.76 K, Twin ebulliometer | – | – | 5.332
[3], 396.37 K, Twin ebulliometer | – | – | 7.999
[3], 404.33 K, Twin ebulliometer | – | – | 10.67
[3], 410.79 K, Twin ebulliometer | – | – | 13.33
[3], 417.49 K, Twin ebulliometer | – | – | 16.67
[3], 423.06 K, Twin ebulliometer | – | – | 19.93
[3], 430.39 K, Twin ebulliometer | – | – | 25.02
[3], 437.8 K, Twin ebulliometer | – | – | 31.18
[3], 445.24 K, Twin ebulliometer | – | – | 38.56
[3], 452.74 K, Twin ebulliometer | – | – | 47.37
[3], 460.3 K, Twin ebulliometer | – | – | 57.81
[3], 467.91 K, Twin ebulliometer | – | – | 70.1
[3], 475.59 K, Twin ebulliometer | – | – | 84.53
[3], 483.32 K, Twin ebulliometer | – | – | 101.33
[3], 491.1 K, Twin ebulliometer | – | – | 120.79
[3], 498.94 K, Twin ebulliometer | – | – | 143.26
[3], 506.84 K, Twin ebulliometer | – | – | 169.03

[2], Liquid, Small (less than 1 g) adiabatic calorimetry
Settings | molar heat capacity [J/K/mol]
271.21 K | 199.33
272.18 K | 199.68
272.24 K | 199.7
280.33 K | 202.71
288.36 K | 205.77
291.65 K | 207.11
303.09 K | 211.59
318.19 K | 217.77
333.27 K | 224.04
348.76 K | 230.58
364.66 K | 237.34
380.18 K | 243.96
395.44 K | 250.46
410.93 K | 257.02
426.18 K | 263.43
438.72 K | 268.69

[3]
Settings | Triple point temperature [K] | mass density [kg/m3]
323.15 K | – | 971.8
348.15 K | – | 951.1
373.15 K | – | 930.3
398.15 K | – | 909.7
423.15 K | – | 889.1
448.15 K | – | 867.8
473.15 K | – | 846.1
Crystal 1, Adiabatic calorimetry | 264.38 | –

Settings | Molar enthalpy of transition or fusion [kcal/mol]
[4] | 2.5198
